Molecules are shown by their SMILES.

The results in this text go back to PMC6943582 (2019).

Test [1] deals with NEO2A (RNA, aptamer) CACUGCAGUCCGAAAAGGGCCAGUG
Briefly: ITC. The following applies: 13.5 mM NaCl, 150 mM KCl, 0.12 mM MgCl2, 0.1 mM MgSO4, 120 nM CaCl2, Buffer A: 20 mM HEPES, pH 7.3, 25 °C.

For test [2], the system named is NEO2AΔA (RNA, aptamer) CACUGCAGUCCGAAAGGGCCAGUG
The experiment in a line: ITC. The following applies: 13.5 mM NaCl, 150 mM KCl, 0.12 mM MgCl2, 0.1 mM MgSO4, 120 nM CaCl2; Buffer A: 20 mM HEPES, phosphate, pH 7.3, 25 °C.

For test [3], the system named is 2AP13NEO2A (RNA, aptamer, 2-aminopurine at 13) CACUGCAGUCCGAAAAGGGCCAGUG
Briefly: 2-aminopurine fluorescence. The following applies: buffer A or F; 10 μM ligand, 1 μM RNA; fluorescence increase.

Test [4] has as its system 2AP7NEO2A (RNA, aptamer, 2-aminopurine at 7) CACUGCAGUCCGAAAAGGGCCAGUG
The experiment in a line: 2-aminopurine fluorescence. The following applies: buffer A or F; 10 μM ligand, 1 μM RNA; fluorescence increase.

The subject of test [5] is 2AP16NEO2A (RNA, aptamer, 2-aminopurine at 16) CACUGCAGUCCGAAAAGGGCCAGUG
Briefly: ITC. The following applies: 13.5 mM NaCl, 150 mM KCl, 0.12 mM MgCl2, 0.1 mM MgSO4, 120 nM CaCl2; Buffer A, pH 7.3, 25 °C; affinity 40% of unsubstituted NEO2A.

The subject of test [6] is 2AP14NEO2A (RNA, aptamer, 2-aminopurine at 14) CACUGCAGUCCGAAAAGGGCCAGUG
Briefly: 2-aminopurine fluorescence. To be noted: buffer A or F; 10 μM ligand, 1 μM RNA; fluorescence decrease.

Take `CCN[C@@H]1C[C@H](N)[C@@H](O[C@H]2OC(CN)=CC[C@H]2N)[C@H](O)[C@H]1O[C@H]1OC[C@](C)(O)[C@H](NC)[C@H]1O`: the Kd (in general, the concentration at which binding is half-saturated) in test [1] (phosphate) is greater than 100 µM.

For the compound `CN[C@@H]1[C@@H](O)[C@@H](O[C@@H]2[C@@H](O)[C@H](O[C@H]3OC(CN)=CC[C@H]3N)[C@@H](N)C[C@H]2N)OC[C@]1(C)O`, the dissociation constant Kd came to 4.9 ± 1.2 µM in test [1] (phosphate) and 4.9 ± 1.0 µM in test [2].

Regarding `CN[C@@H]1[C@@H](O)[C@@H](O[C@@H]2[C@@H](O)[C@H](O[C@H]3O[C@H]([C@@H](C)O)[C@@H](O)[C@H](O)[C@H]3N)[C@@H](N)C[C@H]2N)OC[C@]1(C)O`, in test [1] (phosphate), the Kd is greater than 100 µM.

In test [1] (phosphate), `NCC[C@H](O)C(=O)N[C@@H]1C[C@H](N)[C@@H](O[C@H]2O[C@H](CN)[C@@H](O)[C@H](O)[C@H]2O)[C@H](O)[C@H]1O[C@H]1O[C@H](CO)[C@@H](O)[C@H](N)[C@H]1O` displayed a Kd greater than 100 µM.

Consider `NC[C@@H]1O[C@H](O[C@H]2[C@@H](O)[C@H](O[C@@H]3[C@@H](O)[C@H](N)C[C@H](N)[C@H]3O[C@H]3O[C@H](CN)[C@@H](O)[C@H](O)[C@H]3N)O[C@@H]2CO)[C@H](N)[C@@H](O)[C@@H]1O`, for which the binding entry in test [3], in test [4], in test [5] and in test [6] was “yes” each time. Moreover, the dissociation constant (Kd) in test [1] (phosphate) came out at 0.25 ± 0.050 µM; in test [2] it was 0.17 ± 0.031 µM.

On to `NC[C@@H]1O[C@H](O[C@H]2[C@@H](O)[C@H](O[C@@H]3[C@@H](O)[C@H](N)C[C@H](N)[C@H]3O[C@H]3O[C@H](CO)[C@@H](O)[C@H](O)[C@H]3N)O[C@@H]2CO)[C@H](N)[C@@H](O)[C@@H]1O`, for which the Kd in test [1] (phosphate) was 1.6 ± 0.26 µM. Besides, the binding result in test [2] is reported as “no”.

`NC[C@H]1O[C@H](O[C@H]2[C@H](O)[C@@H](O[C@H]3O[C@H](CO)[C@@H](O)[C@H](N)[C@H]3O)[C@H](N)C[C@@H]2N)[C@H](N)C[C@@H]1O`: the Kd in test [1] (phosphate) was 0.40 ± 0.051 µM; in test [2], 6.3 ± 0.84 µM.

In test [1] (phosphate), `NC[C@H]1O[C@H](O[C@H]2[C@H](O)[C@@H](O[C@H]3O[C@H](CO)[C@@H](O)[C@H](N)[C@H]3O)[C@H](N)C[C@@H]2N)[C@H](N)[C@@H](O)[C@@H]1O` showed a Kd of 0.25 ± 0.073 µM.

Regarding `NC[C@H]1O[C@H](O[C@H]2[C@H](O)[C@@H](O[C@H]3O[C@H](CO)[C@@H](O)[C@H](N)[C@H]3O)[C@H](N)C[C@@H]2N)[C@H](O)[C@@H](O)[C@@H]1O`, the Kd in test [1] (phosphate) is 26 ± 3.0 µM.

For `NC[C@H]1O[C@H](O[C@H]2[C@H](O[C@@H]3O[C@H](CO)[C@@H](O)[C@H]3O)[C@@H](O)[C@H](N)C[C@@H]2N)[C@H](N)[C@@H](O)[C@@H]1O`, the Kd in test [1] (Table S4 prints 0.4 ± 0.075) was determined as 0.28 ± 0.066 µM; in test [2], 2.3 ± 0.0015 µM.
